Measured values from US9096592B2, “Bicyclic aza heterocycles, and use thereof” (BAYER INTELLECTUAL PROPERTY GMBH, priority 2010, dated 2015).
Where a name gives a salt, the structure may show the parent alone.

tested on: aorta rings; test: Vasorelaxant action in vitro (phenylephrine-contracted rabbit aorta rings, organ bath); conditions: Oryctolagus cuniculus; concentration needed to reduce the phenylephrine contraction of rabbit aorta rings by 50%
Procedure: B-1. Vasorelaxant Action In Vitro
Rabbits are stunned by a blow to the neck and exsanguinated. The aorta is removed, freed from adhering tissue and divided into rings of width 1.5 mm, which are placed individually under prestress into 5 ml organ baths with carbogen-sparged Krebs-Henseleit solution at 37° C. having the following composition (each mM): sodium chloride 119; potassium chloride: 4.8; calcium chloride dihydrate: 1; magnesium sulfate heptahydrate: 1.4; potassium dihydrogenphosphate: 1.2; sodium hydrogencarbonate: 25; glucose: 10. The contractile force is determined with Statham UC2 cells, amplified and digitalized using A/D transducers (DAS-1802 HC, Keithley Instruments Munich), and recorded in parallel on linear recorders. To obtain a contraction, phenylephrine is added to the bath cumulatively in increasing concentration. After several control cycles, the substance to be studied is added in increasing dosage each time in every further run, and the magnitude of the contraction is compared with the magnitude of the contraction attained in the last preceding run. This is used to calculate the concentration needed to reduce the magnitude of the control value by 50% (IC50 value). The standard administration volume is 5 μl; the DMSO content in the bath solution corresponds to 0.1%.

| IC50 | Compound |
| --- | --- |
| 199 nM | Nc1nc(-c2nn(Cc3ccccc3F)c3ncccc23)nc2ncn(CC(F)(F)F)c12 [Example 60, 2-[1-(2-Fluorobenzyl)-1H-pyrazolo[3,4-b]pyridin-3-yl]-7-(2,2,2-trifluoroethyl)-7H-purin-6-amine] |
| 759 nM | Nc1nc(-c2nn(Cc3ccccc3F)c3ncccc23)nc2nc(C(F)(F)F)n(CC(F)(F)F)c12 [Example 61, 2-[1-(2-Fluorobenzyl)-1H-pyrazolo[3,4-b]pyridin-3-yl]-7-(2,2,2-trifluoroethyl)-8-(trifluoromethyl)-7H-purin-6-amine] |
| 114 nM | Nc1nc(-c2nn(Cc3ccccc3F)c3ncc(F)cc23)nc2[nH]c(=O)n(CC(F)(F)F)c12 [Example 62, 6-Amino-2-[5-fluoro-1-(2-fluorobenzyl)-1H-pyrazolo[3,4-b]pyridin-3-yl]-7-(2,2,2-trifluoroethyl)-7,9-dihydro-8H-purin-8-one] |
| 139 nM | COC(=O)N1CCNc2nc(-c3nn(Cc4ccccc4F)c4ncccc34)ccc21 [Example 63, Methyl 6-[1-(2-fluorobenzyl)-1H-pyrazolo[3,4-b]pyridin-3-yl]-3,4-dihydropyrido[2,3-b]pyrazine-1(2H)-carboxylate] |
| 86 nM | O=c1[nH]c2ccc(-c3nn(Cc4ccccc4F)c4ncccc34)nc2[nH]1 [Example 71, 5-[1-(2-Fluorobenzyl)-1H-pyrazolo[3,4-b]pyridin-3-yl]-1,3-dihydro-2H-imidazo[4,5-b]pyridin-2-one] |
| 713 nM | Fc1ccccc1Cn1nc(-c2ncc3ccccc3n2)c2cccnc21 [Example 74, 2-[1-(2-Fluorobenzyl)-1H-pyrazolo[3,4-b]pyridin-3-yl]quinazoline] |
| 23 nM | CCOC(=O)N1CCNc2nc(-c3nn(Cc4ccccc4F)c4ncccc34)nc(N)c21 [Example 76, Ethyl 4-amino-2-[1-(2-fluorobenzyl)-1H-pyrazolo[3,4-b]pyridin-3-yl]-7,8-dihydropteridine-5(6H)-carboxylate formate] |
| 27 nM | CC(C)c1nc2c(N)nc(-c3nn(Cc4ccccc4F)c4ncccc34)nc2[nH]c1=O [Example 83, 4-Amino-2-[1-(2-fluorobenzyl)-1H-pyrazolo[3,4-b]pyridin-3-yl]-6-isopropylpteridin-7(8H)-one] |
| 155 nM | Nc1nc(-c2nn(Cc3ccccc3F)c3ncccc23)nc2ccncc12 [Example 84, 2-[1-(2-Fluorobenzyl)-1H-pyrazolo[3,4-b]pyridin-3-yl]pyrido[4,3-d]pyrimidin-4-amine] |
| 164 nM | Nc1nc(-c2nn(Cc3ccccc3F)c3ncccc23)nc2cccnc12 [Example 85, 2-[1-(2-Fluorobenzyl)-1H-pyrazolo[3,4-b]pyridin-3-yl]pyrido[3,2-d]pyrimidin-4-amine] |
| 146 nM | Cn1c(=O)[nH]c2nc(-n3nc(Cc4ccccc4F)c4ncccc43)nc(N)c21 [Example 89, 6-Amino-2-[3-(2-fluorobenzyl)-1H-pyrazolo[4,3-b]pyridin-1-yl]-7-methyl-7,9-dihydro-8H-purin-8-one] |
| 5980 nM | Nc1nc(-n2nc(Cc3ccccc3F)c3ncccc32)nc2[nH]c(=O)[nH]c12 [Example 90, 6-Amino-2-[3-(2-fluorobenzyl)-1H-pyrazolo[4,3-b]pyridin-1-yl]-7,9-dihydro-8H-purin-8-one] |
| 475 nM | Nc1nc(-n2nc(Cc3ccccc3F)c3ncccc32)nc2[nH]c(=O)n(Cc3ccc(F)cc3)c12 [Example 91, 6-Amino-7-(4-fluorobenzyl)-2-[3-(2-fluorobenzyl)-1H-pyrazolo[4,3-b]pyridin-1-yl]-7,9-dihydro-8H-purin-8-one] |
| 535 nM | Nc1nc(-n2nc(Cc3ccccc3F)c3ncccc32)nc2[nH]c(=O)n(CCO)c12 [Example 92, 6-Amino-2-[3-(2-fluorobenzyl)-1H-pyrazolo[4,3-b]pyridin-1-yl]-7-(2-hydroxyethyl)-7,9-dihydro-8H-purin-8-one] |
| 44 nM | Cn1c(=O)[nH]c2nc(-c3nn(Cc4ccccc4F)c4ncc(F)cc34)ncc21 [Example 95, 2-[5-Fluoro-1-(2-fluorobenzyl)-1H-pyrazolo[3,4-b]pyridin-3-yl]-7-methyl-7,9-dihydro-8H-purin-8-one] |
